We go through 77 sequences from the supplement of paper PMC11208160.

The data set is described as follows: recombinant barcode read abundance after kanamycin selection (control-corrected) (log10(CPM+1)); higher = more efficient recombination; sequences stand for … in AGTGCAGAGAAAATCGGCCAGTTTTCTCTGCCTGCAGTCCGCATGCCGT…AGATTTATGCAGCGGACTGCCTTTCTCCCAAAGTGATAAACCGGACAGTATCATGGACCGGTTTTCCCGGTAATCCGTATTTGCAAGGTTGGTTTCACT; site = the 11-nt target. The procedure, abridged: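 This pooled E. coli screen matched targets with IS621 bridge RNA target-binding loops. Plating was done in duplicate on chloramphenicol/ampicillin LB agar as a control and on chloramphenicol/ampicillin/kanamycin plus 0.1 mM IPTG. Recombination efficiency reflects barcode counts at recombinant junctions as counts per million, averaged and control-corrected. The figures are log10(CPM+1).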
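Further: IS621 recombinase and bridge RNA in Escherichia coli cells.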

Turning to “CTATCGTCTTGGGTTCTAACCTGTTGCCT (site CTATCGTCTAG)”, the “recombinant barcode read abundance (log10)” value amounted to 1.22.

For the sequence “CTATGCCCTTGGGTTCTAACCTGTTGCTA (site CTATGCCCTTA)”, the “recombinant barcode read abundance (log10)” value came to 1.16.

Take “CTATGCCCTTGGGTTCTAACCTGTTGCTA (site CTATGCCCTTC)”: the “recombinant barcode read abundance (log10)” value was 0.179.

Take “CTATGGACTTGGGTTCTAACCTGTTGCAC (site CTATGGACTAT)”: the “recombinant barcode read abundance (log10)” value was found to be 0.132.

Regarding “CTATGGACTTGGGTTCTAACCTGTTGCAC (site CTATGGACTCT)”, the “recombinant barcode read abundance (log10)” value stood at 0.242.

Regarding “CTATGGACTTGGGTTCTAACCTGTTGCAC (site CTATGGACTGT)”, the “recombinant barcode read abundance (log10)” value was 1.3.

As for “CTATGGACTTGGGTTCTAACCTGTTGCAC (site CTATGGACTTT)”, the “recombinant barcode read abundance (log10)” value was 0.0443.

For the sequence “CTATGGACTTGGGTTCTAACCTGTTGCCT (site CTATAGACTAG)”, the “recombinant barcode read abundance (log10)” value turned out to be 0.398.

For “CTATGGACTTGGGTTCTAACCTGTTGCCT (site CTATCGACTAG)”, the “recombinant barcode read abundance (log10)” value worked out at 0.196.

For “CTATGGACTTGGGTTCTAACCTGTTGCCT (site CTATGGACTAG)”, the “recombinant barcode read abundance (log10)” value worked out at 0.872.

Regarding “CTATGGACTTGGGTTCTAACCTGTTGCCT (site CTATTGACTAG)”, the “recombinant barcode read abundance (log10)” value turned out to be 0.027.

For the sequence “CTATTAGCTTGGGTTCTAACCTGTTGCCG (site CTAGTAGCTCG)”, the “recombinant barcode read abundance (log10)” value is 0.418.

Turning to “CTATTAGCTTGGGTTCTAACCTGTTGCCG (site CTATTAGCTCG)”, the “recombinant barcode read abundance (log10)” value stood at 0.725.

As to “CTATTGTCTTGGGTTCTAACCTGTTGCGA (site CTATTGTCTAC)”, the “recombinant barcode read abundance (log10)” value is 0.0206.

“CTATTGTCTTGGGTTCTAACCTGTTGCGA (site CTATTGTCTCC)”: the “recombinant barcode read abundance (log10)” value was found to be 0.165.

As for “CTATTGTCTTGGGTTCTAACCTGTTGCGA (site CTATTGTCTGC)”, the “recombinant barcode read abundance (log10)” value is 0.0565.

Turning to “CTATTGTCTTGGGTTCTAACCTGTTGCGA (site CTATTGTCTTC)”, the “recombinant barcode read abundance (log10)” value turned out to be 2.4.

With “CTCAAAGCTTGGGTTCTAACCTGTTGCCG (site CTCAAAGCTCG)”, the “recombinant barcode read abundance (log10)” value worked out at 0.258.

Turning to “CTCAAAGCTTGGGTTCTAACCTGTTGCCG (site TAGTCCACTGC)”, the “recombinant barcode read abundance (log10)” value was 0.196.

Turning to “CTCAAAGCTTGGGTTCTAACCTGTTGCGA (site CTCAAAGCTTC)”, the “recombinant barcode read abundance (log10)” value was 1.38.

Take “CTCAAAGCTTGGGTTCTAACCTGTTGCGA (site GGGGTCCCTAA)”: the “recombinant barcode read abundance (log10)” value was found to be 0.189.

For “CTCAAGGCTTGGGTTCTAACCTGTTGCGT (site CTCAAGGCTAC)”, the “recombinant barcode read abundance (log10)” value came to 1.6.

Take “CTCAAGGCTTGGGTTCTAACCTGTTGCGT (site CTCCAGGCTCC)”: the “recombinant barcode read abundance (log10)” value came to 0.128.

Take “CTCACACCTTGGGTTCTAACCTGTTGCCT (site ATCACACCTAG)”: the “recombinant barcode read abundance (log10)” value was determined as 0.386.

For the sequence “CTCACACCTTGGGTTCTAACCTGTTGCCT (site CTCACACCTAG)”, the “recombinant barcode read abundance (log10)” value turned out to be 0.931.

Regarding “CTCACACCTTGGGTTCTAACCTGTTGCTT (site CTCAAACCTAA)”, the “recombinant barcode read abundance (log10)” value was 0.257.

Consider “CTCACACCTTGGGTTCTAACCTGTTGCTT (site CTCACACCTAA)”, for which the “recombinant barcode read abundance (log10)” value is 0.328.

In the case of “CTCACGACTTGGGTTCTAACCTGTTGCAG (site CTCACGACTCT)”, the “recombinant barcode read abundance (log10)” value turned out to be 0.273.

As for “CTCACGACTTGGGTTCTAACCTGTTGCAG (site GAATGAGCTAG)”, the “recombinant barcode read abundance (log10)” value amounted to 0.245.

Turning to “CTCAGGTCTTGGGTTCTAACCTGTTGCCT (site CTCAGGTCTAG)”, the “recombinant barcode read abundance (log10)” value worked out at 1.01.

For the sequence “CTCAGGTCTTGGGTTCTAACCTGTTGCCT (site CTCAGGTCTTG)”, the “recombinant barcode read abundance (log10)” value was 0.197.

As for “CTCATACCTTGGGTTCTAACCTGTTGCGT (site CTAATACCTAC)”, the “recombinant barcode read abundance (log10)” value was found to be 0.151.

Consider “CTCATACCTTGGGTTCTAACCTGTTGCGT (site CTCATACCTAC)”, for which the “recombinant barcode read abundance (log10)” value is 1.92.

With “CTCATAGCTTGGGTTCTAACCTGTTGCGA (site CTCATAGCTTC)”, the “recombinant barcode read abundance (log10)” value came out at 1.06.

Regarding “CTCATAGCTTGGGTTCTAACCTGTTGCGA (site TGAGGGACTAG)”, the “recombinant barcode read abundance (log10)” value worked out at 0.0808.

As to “CTCATGTCTTGGGTTCTAACCTGTTGCTT (site CTCATGTCTAA)”, the “recombinant barcode read abundance (log10)” value stood at 1.44.

“CTCATGTCTTGGGTTCTAACCTGTTGCTT (site TTCATGTCTAA)”: the “recombinant barcode read abundance (log10)” value turned out to be 0.222.

For “CTCATTCCTTGGGTTCTAACCTGTTGCCT (site CTCATTCCTAA)”, the “recombinant barcode read abundance (log10)” value is 0.0318.

On to “CTCATTCCTTGGGTTCTAACCTGTTGCCT (site CTCATTCCTAC)”, for which the “recombinant barcode read abundance (log10)” value was determined as 0.216.

For the sequence “CTCATTCCTTGGGTTCTAACCTGTTGCCT (site CTCATTCCTAG)”, the “recombinant barcode read abundance (log10)” value came to 0.129.

On to “CTCATTCCTTGGGTTCTAACCTGTTGCCT (site CTCATTCCTAT)”, for which the “recombinant barcode read abundance (log10)” value was determined as 0.0571.

With “CTCCAAGCTTGGGTTCTAACCTGTTGCCT (site CTACAAGCTAG)”, the “recombinant barcode read abundance (log10)” value amounted to 0.105.

“CTCCAAGCTTGGGTTCTAACCTGTTGCCT (site CTCCAAGCTAG)”: the “recombinant barcode read abundance (log10)” value amounted to 0.665.

With “CTCCAAGCTTGGGTTCTAACCTGTTGCCT (site CTGCAAGCTAG)”, the “recombinant barcode read abundance (log10)” value turned out to be 0.0619.

As to “CTCCAAGCTTGGGTTCTAACCTGTTGCCT (site CTTCAAGCTAG)”, the “recombinant barcode read abundance (log10)” value worked out at 0.0961.

As to “CTCCAATCTTGGGTTCTAACCTGTTGCCT (site CTCCAATCTAG)”, the “recombinant barcode read abundance (log10)” value was determined as 0.666.

With “CTCCAATCTTGGGTTCTAACCTGTTGCCT (site CTCCTATCTAG)”, the “recombinant barcode read abundance (log10)” value amounted to 0.113.

With “CTCCAGCCTTGGGTTCTAACCTGTTGCGG (site CTCCAACCTCC)”, the “recombinant barcode read abundance (log10)” value was determined as 0.411.

On to “CTCCAGCCTTGGGTTCTAACCTGTTGCGG (site CTCCAGCCTCC)”, for which the “recombinant barcode read abundance (log10)” value stood at 1.49.

Consider “CTCCCAACTTGGGTTCTAACCTGTTGCCG (site CTCCCAACTCG)”, for which the “recombinant barcode read abundance (log10)” value is 0.136.

Regarding “CTCCCAACTTGGGTTCTAACCTGTTGCCG (site CTCCCTACTCT)”, the “recombinant barcode read abundance (log10)” value was found to be 0.356.

“CTCCCAACTTGGGTTCTAACCTGTTGCCT (site CTCCCAACTAG)”: the “recombinant barcode read abundance (log10)” value worked out at 0.379.

Turning to “CTCCCAACTTGGGTTCTAACCTGTTGCCT (site TTCCCTACTAG)”, the “recombinant barcode read abundance (log10)” value amounted to 0.446.

Turning to “CTCCCATCTTGGGTTCTAACCTGTTGCGT (site CTCCCATCTAC)”, the “recombinant barcode read abundance (log10)” value came to 0.874.

For “CTCCCATCTTGGGTTCTAACCTGTTGCGT (site CTCCGATCTCC)”, the “recombinant barcode read abundance (log10)” value was found to be 0.165.

Consider “CTCCCTTCTTGGGTTCTAACCTGTTGCTT (site CTCCCTTCTAA)”, for which the “recombinant barcode read abundance (log10)” value worked out at 0.534.

“CTCCCTTCTTGGGTTCTAACCTGTTGCTT (site CTTCCTTCTAG)”: the “recombinant barcode read abundance (log10)” value is 0.104.

“CTCCGAGCTTGGGTTCTAACCTGTTGCAC (site CTCCGAGCTGT)”: the “recombinant barcode read abundance (log10)” value came out at 0.201.

With “CTCCGAGCTTGGGTTCTAACCTGTTGCAC (site GGAACGACTAC)”, the “recombinant barcode read abundance (log10)” value is 0.0202.

“CTCCGATCTTGGGTTCTAACCTGTTGCGG (site CTCCCATCTAC)”: the “recombinant barcode read abundance (log10)” value amounted to 0.

With “CTCCGATCTTGGGTTCTAACCTGTTGCGG (site CTCCGATCTCC)”, the “recombinant barcode read abundance (log10)” value stood at 0.0434.

For the sequence “CTCCGCCCTTGGGTTCTAACCTGTTGCCT (site CTCCGCCCTAG)”, the “recombinant barcode read abundance (log10)” value came to 0.776.

Regarding “CTCCGCCCTTGGGTTCTAACCTGTTGCCT (site CTCCGTCCTAC)”, the “recombinant barcode read abundance (log10)” value is 0.0714.

As to “CTCCGGGCTTGGGTTCTAACCTGTTGCAG (site CTCCGGGCTCT)”, the “recombinant barcode read abundance (log10)” value was 1.81.

For “CTCCGGGCTTGGGTTCTAACCTGTTGCAG (site TATACACCTAC)”, the “recombinant barcode read abundance (log10)” value turned out to be 0.0879.

In the case of “CTCCGGTCTTGGGTTCTAACCTGTTGCTT (site CACGGGTCTAA)”, the “recombinant barcode read abundance (log10)” value amounted to 0.22.

Turning to “CTCCGGTCTTGGGTTCTAACCTGTTGCTT (site CTCCGGTCTAA)”, the “recombinant barcode read abundance (log10)” value was 1.77.

Regarding “CTCCGTACTTGGGTTCTAACCTGTTGCAT (site CTCCGAACTAA)”, the “recombinant barcode read abundance (log10)” value was determined as 0.0945.

With “CTCCGTACTTGGGTTCTAACCTGTTGCAT (site CTCCGTACTAT)”, the “recombinant barcode read abundance (log10)” value came to 1.14.

Regarding “CTCCGTCCTTGGGTTCTAACCTGTTGCCG (site CTCCGTCCTCG)”, the “recombinant barcode read abundance (log10)” value stood at 1.25.

In the case of “CTCCGTCCTTGGGTTCTAACCTGTTGCCG (site GCCCGTCCTCG)”, the “recombinant barcode read abundance (log10)” value was 0.272.

Consider “CTCCGTCCTTGGGTTCTAACCTGTTGCCT (site CTCCGTCCTAG)”, for which the “recombinant barcode read abundance (log10)” value came out at 1.5.

Turning to “CTCCGTCCTTGGGTTCTAACCTGTTGCCT (site CTGCGTCCTAG)”, the “recombinant barcode read abundance (log10)” value was determined as 0.252.

“CTCCGTCCTTGGGTTCTAACCTGTTGCTT (site CTCCGACCTAA)”: the “recombinant barcode read abundance (log10)” value was found to be 0.106.

For “CTCCGTCCTTGGGTTCTAACCTGTTGCTT (site CTCCGCCCTAA)”, the “recombinant barcode read abundance (log10)” value stood at 0.111.

Take “CTCCGTCCTTGGGTTCTAACCTGTTGCTT (site CTCCGGCCTAA)”: the “recombinant barcode read abundance (log10)” value stood at 0.589.

Take “CTCCGTCCTTGGGTTCTAACCTGTTGCTT (site CTCCGTCCTAA)”: the “recombinant barcode read abundance (log10)” value worked out at 0.445.
